A short description of the series: gradient 5% acetonitrile 3 min, to 50% in 2 min, to 85% in 15 min, held 3 min, 100 µL/min. The settings on record: column: Zorbax Extend-C18 2.1 x 50 mm; eluents: water / acetonitrile, 0.1% formic acid. In outline:
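In both positive and negative ionization mode, a quadrupole time-of-flight mass spectrometer coupled to HPLC analyzed pure standards run in mixtures of ~100 molecules. The Zorbax Extend-C18 column (2.1 × 50 mm, 1.8 μm) was operated at 100 μL/min with water and acetonitrile, each containing 0.1% formic acid. The dead volume was 40 μL and the dwell volume 900 μL. Retention time came from adduct peaks that were computationally picked and individually inspected by hand.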
Turning to `Cc1nnsc1C(=O)Nc1ccc([N+](=O)[O-])cc1C(F)(F)F`, the RP-LC retention time amounted to 868 s. Then `Cn1cc2c(n1)c(=O)n(Cc1ccc(Cl)cc1)c1nn(Cc3ccccc3)c(=O)n21`, with 960 s.

As to `O=C(Nc1ccc(OCC(=O)N2CCCN(c3ncccn3)CC2)nc1)C1CC1`, the RP-LC retention time came out at 612 s. Then `COc1ccccc1Oc1ccc(S(=O)(=O)NCc2ccco2)cc1`, with 873 s. Then `Cc1ccc(-c2noc(-c3ccccc3S(=O)(=O)NCCC(C)C)n2)cc1`, with 1330 s. Compound `C=CCNC(=O)c1c(O)c2cccnc2n(-c2ccc(OC)cc2)c1=O` returned an RP-LC retention time of 1020 s. In turn, `Cc1ccc(CNC(=O)C2CCN(S(=O)(=O)c3ccc4c(c3)NC(=O)C(C)O4)CC2)cc1` (stereo not drawn) gave an RP-LC retention time of 824 s.

The compound `Cc1ccc(NC(=O)CN2C(=O)C3CCCCN3c3ccc(S(=O)(=O)N(C)C)cc32)nc1` (stereo not drawn) gave an RP-LC retention time of 828 s. For `O=C(NCc1ccc2c(c1)OCCCO2)c1cccs1`, the RP-LC retention time worked out at 791 s. In turn, `COc1ccc(-n2cc(C(=O)OCC(=O)OC(C)(C)C)c3ccccc3c2=O)cc1` displayed an RP-LC retention time of 1140 s.

`Cc1ccc(Sc2nccnc2N2CCCC(C(=O)NCc3ccc4c(c3)OCO4)C2)cc1` (stereo not drawn) came in with an RP-LC retention time of 1060 s. Then `N#CCn1cccc1-c1nc(-c2cccnc2)no1`, with 776 s; and `COc1ccc(-c2ncc3c(n2)CCN(C(=O)c2ccc(F)cc2Cl)C3)cc1`, with 971 s. As to `COc1c(C(=O)N2CCN(C3CCCCC3)CC2)sc2ccc(F)cc12`, the RP-LC retention time was 685 s.

For `O=C(Nc1ccc(-n2cnnn2)cc1)c1csc(Nc2ccccc2)n1`, the RP-LC retention time is 777 s. `COc1cccc(-n2c(=O)c3sccc3n(Cc3nc(-c4ccccc4Cl)no3)c2=O)c1` yielded an RP-LC retention time of 969 s. Take `COc1nccnc1N1CCC(NS(=O)(=O)c2ccc(C)cc2)C1` (stereo not drawn): the RP-LC retention time was 759 s. `Cc1ccc2c(c1)N(C(=O)CCC(=O)NCCCN1CCN(C3CCCCC3)CC1)CC(C)O2` (stereo not drawn): the RP-LC retention time turned out to be 603 s.

`Cc1ccc(C(=O)N2CCCC(COc3ccc(C(=O)NC(C)C)cc3)C2)c(C)c1` (stereo not drawn) came in with an RP-LC retention time of 916 s. `COc1ccc2c(c1)-c1nc(NC(=O)c3ccc(Cl)cc3)sc1CC2`: the RP-LC retention time was 1180 s. In turn, `CCCCC(=O)Nc1ccc(-c2cn3ccc(C)nc3n2)cc1` yielded an RP-LC retention time of 612 s.

In turn, `Cc1ccc(C(=O)N2CCCCC2c2nncn2CC2CC2)s1` (stereo not drawn) registered an RP-LC retention time of 740 s. The result for `CCCS(=O)(=O)N1CCCC(c2nnc(-c3cccs3)o2)C1` (stereo not drawn) reads 749 s; that for `CCN1C(=O)COc2ccc(-c3nc(NC(=O)CCc4ccccc4)sc3C)cc21`, 1040 s. The result for `CN1c2cc(F)ccc2C(=O)NC12CCN(C(=O)Cc1ccc(Cl)cc1)CC2` reads 919 s.

With `CC(=O)N1CCc2cc(N3CC(C(=O)N4CCN(c5ccccn5)CC4)CC3=O)ccc21` (stereo not drawn), the RP-LC retention time is 566 s. Then `O=C(Cc1c(Sc2ccccc2)[nH]c2ccccc12)NCCN1CCOCC1`, with 654 s; and `Cc1noc(C)c1S(=O)(=O)N1CCC(C(=O)NCCc2csc(-c3ccccc3)n2)CC1`, with 877 s. Consider `Cc1nc(-c2cn(Cc3cccc(F)c3)nn2)no1`, for which the RP-LC retention time came to 748 s.

In turn, `Cc1cc(C)cc(NC(=O)c2cnn3c2CCCC3)c1` showed an RP-LC retention time of 603 s. With `Cc1ccc(-c2nc(Nc3cccc(C(F)(F)F)c3)sc2CC(=O)O)c(C)c1`, the RP-LC retention time came out at 1120 s.

As to `O=C(Cn1c(=O)c2cccn2c2ccc(F)cc21)NCCCN1CCCCCC1`, the RP-LC retention time is 627 s. Then `O=C(CCCCCCC(=O)Nc1ccc(F)cc1)NO`, with 628 s. The compound `CC(=O)c1ccc(NC(=O)C2CC(=O)N(c3ccc4oc(C)nc4c3)C2)cc1` (stereo not drawn) returned an RP-LC retention time of 685 s. On to `O=C(NCC1CCCO1)C1CCN(S(=O)(=O)c2cc(-c3noc(C4CCC4)n3)cs2)CC1` (stereo not drawn), for which the RP-LC retention time came to 858 s. The result for `O=c1cc(-c2ccccc2)nc2n1CCN2CCCN1CCOCC1` reads 582 s; that for `CN(C)S(=O)(=O)c1ccc(C(=O)Nc2nc(-c3ccc4c(c3)OCO4)cs2)cc1`, 910 s; that for `Cc1ccc(CNC(=O)C(C)n2nc(C)c3c(C)n(-c4ccccc4)nc3c2=O)o1` (stereo not drawn), 736 s. The result for `Cn1nc(-c2ccccc2F)c2cc(C(=O)N3CCN(c4ccccn4)CC3)sc21` reads 654 s; that for `COc1ccc(-c2cn3c(CC(=O)Nc4ccc(C)cn4)csc3n2)cc1OC`, 653 s.

In turn, `COc1ccc(-c2cc(N3CCN(C(=O)Nc4cc(OC)cc(OC)c4)CC3)ncn2)cc1` came in with an RP-LC retention time of 672 s.

The compound `COc1ccc(-c2ccc(=O)n(Cc3nc(-c4ccc(F)cc4)no3)n2)cc1` came in with an RP-LC retention time of 995 s. `COc1ccc(CNC(=O)c2cn(C)nc2S(=O)(=O)N2CCSCC2)cc1` returned an RP-LC retention time of 818 s. The result for `Cc1ccc(C(=O)N2CCc3sc(C(=O)N4CCC5(CC4)OCCO5)cc3C2)cc1` reads 793 s; that for `COc1ccc(F)cc1S(=O)(=O)N1C[C@@H]2C[C@H]1C[C@@H]2NC(=O)c1ccccc1`, 786 s; that for `CC1(C(=O)N2CCN(Cc3ccc4c(c3)OCO4)CC2)CCCCC(=O)N1` (stereo not drawn), 576 s. Then `Clc1cccc(Nc2c(-c3ccccc3)nc3cnccn23)c1`, with 921 s. The result for `COc1cc(=O)n(-c2ccccc2)nc1C(=O)NC(c1ccccc1)c1ccccc1` reads 828 s; that for `COc1ccc2c(n1)Sc1nc3ccccc3nc1N2`, 1040 s; that for `CCOc1cccc(-c2noc(Cn3ncn4nc(-c5ccc(F)cc5)cc4c3=O)n2)c1`, 860 s. Turning to `CCNc1cc(N2CCC(CCC(=O)N3CCC(C)CC3)CC2)ncn1`, the RP-LC retention time is 548 s.

`O=c1ccc(N2CCC(NS(=O)(=O)c3ccc(F)c(F)c3)CC2)nn1CC1CC1` had an RP-LC retention time of 834 s. As for `CCCNC(=O)CC1Sc2ncccc2N(CC(C)C)C1=O` (stereo not drawn), the RP-LC retention time was determined as 723 s. For `CCCCn1c(=O)c2ccccc2n(Cc2nc(-c3ccc(C(F)(F)F)cc3)no2)c1=O`, the RP-LC retention time was found to be 1260 s.

In turn, `Cc1nn(-c2ccccc2)c2c1N(C(=O)CCC(=O)NCCc1c[nH]c3ccccc13)CCS2` displayed an RP-LC retention time of 850 s. Then `Cc1nn(-c2ccccc2)c2ccn(CC(=O)N3CCN(c4cccc(Cl)c4)CC3)c(=O)c12`, with 927 s; and `Cc1ccc2cc(CCC(=O)N3CCC4(CC3)OCCO4)c(=O)[nH]c2c1`, with 688 s. The result for `CCn1cc(CN2CCC(C(=O)NCc3ccc(N(C)C)cc3)CC2)c2cc(OC)ccc21` reads 603 s.

Consider `Cc1ccc2nc(Nc3nc(C)cc(C(F)(F)F)n3)nc(C)c2c1`, for which the RP-LC retention time was 713 s.

`CCc1csc(-c2ccc(N3CCN(C(=O)c4ccc(F)cc4F)CC3)nc2)n1` displayed an RP-LC retention time of 890 s. `O=C(Nc1ccc(Cl)cc1F)C1Oc2ccccc2NC1=O` (stereo not drawn): the RP-LC retention time was 824 s. With `CCN1C(=O)c2cccnc2Sc2cc(NC(=O)c3cc(C)cc(C)c3)ccc21`, the RP-LC retention time was 918 s. The result for `Cc1noc(C)c1CNC(=O)c1cc(-c2ccccc2)n[nH]1` reads 706 s; that for `CC(CNC(=O)C1CCCN1S(=O)(=O)c1cc2c(cc1Cl)NC(=O)CO2)c1ccccc1` (stereo not drawn), 834 s. The result for `CC(C)CNC(=O)N1CC(Oc2ccc(-c3nc(-c4ccccc4)no3)cc2)C1` reads 1060 s; that for `COc1ccc2[nH]cc(CCn3ccc4c(cnc5nc(-c6ccc(Cl)cc6)nn54)c3=O)c2c1`, 990 s. With `O=C(NC1CCCC1)c1cccn1Cc1noc(-c2ccccc2)n1`, the RP-LC retention time came to 981 s. Then `CCC(C(=O)N(C)CCc1noc(-c2ccc(C(=O)N3CCCC3)cc2)n1)c1ccccc1` (stereo not drawn), with 872 s. The result for `CCOc1ccc(C(=O)NC2(c3nc(C(C)C)no3)CCCCC2)cc1OCC` reads 1060 s; that for `CCC(=O)Nc1ccc2c(c1)CN(C(=O)c1ccc(C)cc1)C(C(=O)N1CCCC1)C2` (stereo not drawn), 738 s; that for `CCc1ccccc1NC(=O)CN1C(=O)CCCc2cc(S(=O)(=O)N3CCCC3)ccc21`, 845 s.

Compound `COc1ccc(-c2nc3cnccn3c2Nc2ccccc2C)cc1OC` returned an RP-LC retention time of 793 s. Consider `CCC1=C(c2ccc(C)cc2)S(=O)(=O)N=C1N1CCC(C(=O)N2CCN(C)CC2)CC1`, for which the RP-LC retention time was found to be 641 s. Then `CCCOC(=O)c1cnc2nc(C)ccc2c1NCc1ccc(OC)cc1`, with 750 s. For the compound `O=C(C1CCN(c2cnc3nccnc3c2)CC1)N1CCN(C2CCCCC2)CC1`, the RP-LC retention time came to 572 s. Compound `COc1ccc(-n2c(Cc3cccn3C)nnc2SCC(=O)NCC2CCCO2)cc1` (stereo not drawn) returned an RP-LC retention time of 655 s. `CCc1ccc(CNc2nc3ccncc3n(CC)c2=O)cc1` came in with an RP-LC retention time of 701 s. `CCc1nncn1C1CCN(S(=O)(=O)c2cccc(F)c2)CC1` came in with an RP-LC retention time of 678 s.

These data come from the METLIN SMRT retention time set (Domingo-Almenara et al. 2019).
